Assay results reported in patent publication US9587266B2, “Mutant luciferases” (University of Massachusetts, priority 2011, dated 2017).

What was measured:
Assay in all cases: Titration assay with purified protein
Type in all cases: biochemical
T251S mutant luciferase = molecular target: T1, T251S mutant luciferase (Photinus pyralis, UniProt P08659, T251S)
T1 construct: The full firefly (Photinus pyralis) luciferase gene was PCR amplified from pGL3 (Promega); GST (N, cleaved yes); made in house; host or cells: E. coli JM109

[1] = molecular target: T2, S347A/L286M double mutant luciferase (Photinus pyralis, UniProt P08659, L286M/S347A); details: sustained light emission
T2 construct: The full firefly (Photinus pyralis) luciferase gene was PCR amplified from pGL3 (Promega); GST (N, cleaved yes); made in house; host or cells: E. coli JM109
Protocol: (§1) The PCR product was cloned into the BamH1 and NotI sites of pGEX6P-1 for bacterial expression. Mutant proteins were created using the Quickchange site-directed mutagenesis kit (Stratagene). Saturating mutagenesis was performed using the used the degenerate codon NNK at sites predicted to impact or alter substrate biding including F247, T251, L286, S347, R337, R218, Q338, Y340, A313, and I351 using the degenerate codon NNK. The point mutants S347A, L286A, A348G, E311A, I351A, A313G, R337A, H245A and L342A were made independently.
(§2) Luminescence assays in 96-well plates were initiated by adding 30 μL 2× substrate in 20 mM Tris pH 7.6, 0.1 mM EDTA, 8 mM MgSO4, 4 mM ATP, and 1 mM TCEP to 30 μL of 20 nM purified luciferase in 20 mM Tris pH 7.6, 0.1 mM EDTA, 1 mM TCEP and 0.4 mg/mL BSA. Titration assays were performed 3 minutes post-substrate addition in a Turner Veritas luminometer with final substrate concentrations ranging from 0.122-250 μM or 0.244-500 μM.

WT luciferase = molecular target: T3, WT luciferase (Photinus pyralis, UniProt P08659)
T3 construct: The full firefly (Photinus pyralis) luciferase gene was PCR amplified from pGL3 (Promega); GST (N, cleaved yes); made in house; host or cells: E. coli JM109
Protocol: as §1, §2

[2] = 3 minutes post-substrate addition, read-out: Apparent Km

T3 sequence (P08659 whole entry): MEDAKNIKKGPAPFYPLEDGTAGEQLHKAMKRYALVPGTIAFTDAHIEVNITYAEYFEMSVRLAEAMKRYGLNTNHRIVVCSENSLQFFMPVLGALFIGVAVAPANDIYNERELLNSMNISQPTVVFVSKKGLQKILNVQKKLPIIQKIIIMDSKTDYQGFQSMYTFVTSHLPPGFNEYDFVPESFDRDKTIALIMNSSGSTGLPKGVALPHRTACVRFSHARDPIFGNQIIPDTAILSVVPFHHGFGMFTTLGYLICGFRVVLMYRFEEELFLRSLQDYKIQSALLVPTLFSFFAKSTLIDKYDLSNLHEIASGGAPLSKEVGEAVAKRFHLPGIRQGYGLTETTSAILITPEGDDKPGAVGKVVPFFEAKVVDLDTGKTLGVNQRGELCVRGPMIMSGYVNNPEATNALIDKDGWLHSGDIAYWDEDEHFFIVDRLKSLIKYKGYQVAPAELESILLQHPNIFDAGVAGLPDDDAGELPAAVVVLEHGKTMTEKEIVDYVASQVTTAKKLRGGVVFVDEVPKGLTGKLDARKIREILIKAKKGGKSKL
T1 sequence (P08659 whole entry T251S): as the sequence (P08659 whole entry) above, with T251S counted along it
T2 sequence (P08659 whole entry L286M/S347A): as the sequence (P08659 whole entry) above, with L286M, S347A counted along it

For `O=C(O)[C@H]1CSC(c2nc3cc4c(cc3s2)NCC4)=N1` [CycLuc1], the “Apparent Vmax” value (T251S mutant luciferase) was 90 ± 0.9 ×10^−5 cps, the Km (T251S mutant luciferase; [2]) was 1.83 ± 0.09 µM and the “Vmax higher than wt” value [1] was 20 fold. The “Apparent Vmax” value (WT luciferase) was 9.7 ± 0.1 ×10^−5 cps and the Km (WT luciferase; [2]) was 0.1 ± 0.01 µM.
